From US9029080B2, “Screening assay for insecticides” (priority 2008, dated 2015)

Each molecule was assayed against T1, ShaI/KChIP (Drosophila melanogaster, UniProt P17971) (assay: ShaI/KChIP FLIPR membrane potential assay, KCl depolarization). Conditions: not given.
T1 construct: expressed in transfected cells; subclone 18-13-20
T1 sequence (P17971 with tags, fused parts or gaps isoform P17971-1): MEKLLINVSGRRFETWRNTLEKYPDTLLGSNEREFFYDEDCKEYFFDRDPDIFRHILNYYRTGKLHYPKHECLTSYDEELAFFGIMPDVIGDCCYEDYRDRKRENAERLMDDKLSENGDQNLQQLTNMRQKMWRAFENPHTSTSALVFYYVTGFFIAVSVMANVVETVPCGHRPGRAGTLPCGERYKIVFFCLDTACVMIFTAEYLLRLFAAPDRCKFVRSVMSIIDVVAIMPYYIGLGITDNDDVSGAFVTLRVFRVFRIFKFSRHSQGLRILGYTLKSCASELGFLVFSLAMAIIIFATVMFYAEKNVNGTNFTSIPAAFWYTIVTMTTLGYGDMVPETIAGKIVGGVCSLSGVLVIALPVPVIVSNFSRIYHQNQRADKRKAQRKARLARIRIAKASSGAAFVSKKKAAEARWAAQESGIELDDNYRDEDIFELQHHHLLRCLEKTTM
Type: cell-based
Procedure: This assay uses two fluid additions to permit the detection of activators and antagonists in a single experiment (FIG. 17). In screening, test compounds are added in the first addition and allowed to incubate for three minutes. An activating dose of KCl is then introduced in the second addition and the fluorescence read for an additional three minutes. Controls are run for both additions.
Cells were dispensed in a 50 μl volume containing 7,500 cells into 384-well TC clear/black assay plates (Greiner 781091) using a Multidrop 384 dispenser, incubated at ambient temperature for one hour (to reduce edge effects), and incubated overnight at 37° C./5% CO2. The cells were assayed 18-24 hours after seeding, at which point they were just approaching confluency in the wells. Culture medium was removed by flicking and tapping it out of the plate, and cells were loaded with 20 ul/well of 1× blue membrane potential dye in assay buffer for 30 minutes at 25° C. After 30 minutes the assay plate was placed into the FLIPR and run using a two-addition protocol. The first addition (5×, 5 ul) contained 2.5% DMSO in assay buffer. The pipetting height was set at 15 and the speed 20. The plate was read for three minutes after this addition. The second addition (2×, 25 ul) was either assay buffer or 120 mM isometrically-substituted KCl (i.e., KCl substituted for NaCl on a 1:1 molar basis). The height was 20 and the speed 25. Aspirate speeds were set at the lowest values and no hold or expel volumes applied. The plate was read for an additional three minutes after the second addition. The exported statistics were typically configured as stat1=average of 190-200 (the interval just before the first addition) and stat2=maximum of 260-maximum allowed. Subtract bias was set at 1 and negative control correction was OFF. Z′ statistics (an index of “screenability”, Z′>0.5=single-pass screen) were calculated using the following formula: Z′=1−((3σmax+3σmin)/(Iμmax−μminI)).
FIG. 32: BIOMOL compounds—primary screening data. ScreenWorks screenshots showing primary FLIPR data for BIOMOL compound screening. ShaI/KChIP 20 cells were plated at 7500 cells/well in 384-well assay plates and screened the following day. Culture medium was removed by flicking the plates and the cells were loaded with 20 ul 1× membrane potential dye per well for 0.5 hours at 25° C. A two-addition protocol was used. The first addition was 5 ul 5× control or compound in 2.5% DMSO in assay buffer (0.5% [final]) read for 180 sec, and the second addition was 25 ul 2× control or 120 mM isometrically-substituted KCl in assay buffer (0-60 mM [final]) read for an additional 180 sec. Statistics were exported using the average of reads 180-200 and the maximum of reads 260-maximum allowed. Subtract bias was set at 1 and negative control correction was OFF. Control columns ½ and 23/24 are described starting on pg. 53 of this document. Inset: Screenshot of group averages for the control and compound wells highlighted in the primary data screen.
The 3222 unique members of the BioFocus SoftFocus Ion Channel Libraries #1-4 (#SF101-04) were screened in 384-well four-point mode against ShaI/KChIP at 10 uM in a combined activator and antagonist screen. The same FLIPR protocol was used as for the BIOMOL screening and was carried out over four non-consecutive days. The following compound preparation protocol was used to prepare screening plates: Briefly, ShaI-KChIP cells were seeded in 384-well plates at 7500 cells/well in 50 ul and incubated overnight at 37° C./5% CO2. The next day, culture medium was removed, 20 ul of 1×FMP dye was added, and the cell plate was incubated at 27° C. for 30 minutes. After incubation, the cell plate was placed into the Tetra and a two-addition protocol was used. The 1st addition was 5 μl of 5× compound (50 μM) with a three minute read. […] The 2nd addition was 25 ul of 2× activation buffer (120 mM isometric KCl substitution for NaCl) and read for an additional two minutes. […]

SMILES	inhibition at 10 µM [%]	inhibition at 25 µM [%]
Cc1cccnc1C1=NOC(Cc2ccccc2)C(=O)N1CCOc1ccc(F)cc1 (centres unmarked)	36.2	
CC1(Cc2cccc(F)c2)C(=O)Nc2ccc(OC(F)(F)F)cc21 (centres unmarked)	33.5	
CCOc1ccc(C2=NOC(C)C(=O)N2Cc2cccc(F)c2)cc1 (centres unmarked)	52.7	
Cc1c(C(=O)NCc2ccc(F)cc2)sc(=O)n1Cc1ccc(Cl)c(Cl)c1	38	
Cc1c(C(=O)NCc2ccc(C(F)(F)F)cc2)sc(=O)n1CCc1c[nH]c2ccccc12	33.3	
Cc1ccc(C2(Cc3c(C)noc3C)C(=O)Nc3cc(F)ccc32)cc1 (centres unmarked)	35.2	
O=C1Nc2cc(Cl)cc(Cl)c2C1(Cc1ccncc1)c1ccccc1 (centres unmarked)	36.4	
O=C1Nc2cc(F)ccc2C1(Cc1ccc(C(F)(F)F)nc1)c1cccc(F)c1 (centres unmarked)	42.7	
NC(N)=NC(=O)c1nc(Cl)c(N)nc1N [Amiloride, 3,5-diamino-6-chloro-N-(diaminomethylene)pyrazine-2-carboxamide, reference compound]		80 to 100
CCC1(c2sccc2C)C(=O)Nc2ccccc21 (centres unmarked)	52	
O=C1Nc2ccc(F)cc2C1(Cc1ccccn1)c1ccc(Cl)cc1 (centres unmarked)	56.8	
COc1ccc(Cl)cc1C1=NOCC(=O)N1CCOc1ccc(F)cc1	38.7	
CC1ON=C(c2ccccc2F)N(Cc2cccc(F)c2)C1=O (centres unmarked)	30.2	
Cc1nc(CC2(c3ccccc3)C(=O)Nc3cc(F)ccc32)cs1 (centres unmarked)	42.5	
Cc1ccc(C2(Cc3ccncc3)C(=O)Nc3ccc(OC(F)(F)F)cc32)cc1 (centres unmarked)	29.1	
CC1(Cc2ccccc2C#N)C(=O)Nc2cc(OC(F)(F)F)ccc21 (centres unmarked)	31.2	
Cc1ccsc1C1(C)C(=O)Nc2ccccc21 (centres unmarked)	56.8	
NC(=O)c1cccc(CC2(c3cccc(F)c3)C(=O)Nc3cc(F)ccc32)c1 (centres unmarked)	54.1	
Cc1ccc(C2(Cc3cc(C)on3)C(=O)Nc3ccc(OC(F)(F)F)cc32)cc1 (centres unmarked)	40.1	
CC1ON=C(Cc2ccccc2)N(CCc2c[nH]c3ccccc23)C1=O (centres unmarked)	29.6	
Cc1noc(C)c1CC1(c2ccccc2)C(=O)Nc2ccc(OC(F)(F)F)cc21 (centres unmarked)	50.4	
Cc1cccnc1C1=NOC(Cc2ccccc2)C(=O)N1CCc1ccccc1 (centres unmarked)	33.3	
CC1ON=C(c2cccc(Cl)c2)N(Cc2ccc3c(c2)OCO3)C1=O (centres unmarked)	31.5	
O=C(NCc1cccc(C(F)(F)F)c1)c1cn(CCOc2ccc(F)cc2)c(=O)s1	30.2	
Cc1nc(CC2(c3sccc3C)C(=O)Nc3ccc(OC(F)(F)F)cc32)cs1 (centres unmarked)	37.8	
CC1(Cc2cc(Cl)ccc2C(F)(F)F)C(=O)Nc2ccccc21 (centres unmarked)	32.5	
CC1ON=C(c2cccc(Cl)c2)N(Cc2cccc(C#N)c2)C1=O (centres unmarked)	38.7	

SMILES	inhibition at 10 µM [%]	inhibition at 25 µM [%]
COc1ccc(Cl)cc1CC1(C)C(=O)Nc2ccc(F)cc21 (centres unmarked)	32	
Cc1ccccc1C1(Cc2cccc(C#N)c2)C(=O)Nc2ccc(F)cc21 (centres unmarked)	55.5	
O=C1Nc2ccc(OC(F)(F)F)cc2C1(Cc1ccccn1)c1ccccc1 (centres unmarked)	39.1	
Cc1nc(CC2(c3cccc(F)c3)C(=O)Nc3ccc(OC(F)(F)F)cc32)cs1 (centres unmarked)	34	
COc1ccc(C(C)=O)cc1CC1(c2ccc3c(c2)OCO3)C(=O)Nc2ccccc21 (centres unmarked)	35.2	
Cc1ccsc1C1(Cc2cccc(C#N)c2)C(=O)Nc2cc(F)ccc21 (centres unmarked)	58	
Cc1nc(CC2(c3ccccc3)C(=O)Nc3ccc(OC(F)(F)F)cc32)cs1 (centres unmarked)	31.4	
CC1ON=C(c2ccc(N(C)C)cc2)N(Cc2cccc(F)c2)C1=O (centres unmarked)	41.3	
Cc1ccc(C2(Cc3ccncc3)C(=O)Nc3cc(F)ccc32)cc1 (centres unmarked)	48.5	
Cc1ccc(C2(Cc3cccc(C(N)=O)c3)C(=O)Nc3cc(F)ccc32)cc1 (centres unmarked)	57.5	
CC1(c2ccccc2)C(=O)Nc2ccccc21 (centres unmarked)	42.6	
COc1ccc2c(c1)C(C)(Cc1ccc(Cl)s1)C(=O)N2 (centres unmarked)	38.3	
COc1ccc(C2(Cc3ccc(C(F)(F)F)o3)C(=O)Nc3ccc(F)cc32)c(OC)c1 (centres unmarked)	60.3	
CC1(Cc2ccc(F)c(Cl)c2)C(=O)Nc2ccc(F)cc21 (centres unmarked)	52.6	
CC1(Cc2ccccc2C#N)C(=O)Nc2cc(-c3ccccc3Cl)ccc21 (centres unmarked)	63.3	
Cc1ccc(C2(Cc3csc(C)n3)C(=O)Nc3cc(F)ccc32)cc1 (centres unmarked)	29.3	
Cc1ccc(C2(Cc3csc(C)n3)C(=O)Nc3cccc(Cl)c32)cc1 (centres unmarked)	46	
Cc1cc(CC2(c3cccc(F)c3)C(=O)Nc3cc(F)ccc32)no1 (centres unmarked)	54.9	
COC(=O)c1ccc(CC2(c3cccc(F)c3)C(=O)Nc3cccc(Cl)c32)o1 (centres unmarked)	41.5	
NC(=O)c1cccc(CC2(c3ccccc3)C(=O)Nc3c(Cl)cccc32)c1 (centres unmarked)	33.3	
Cc1c(C(=O)NCc2ccc([N+](=O)[O-])cc2)sc(=O)n1Cc1ccc(OC(F)(F)F)cc1	30.2	
Cc1nc(CC2(c3cccc(F)c3)C(=O)Nc3cc(F)ccc32)cs1 (centres unmarked)	37.5	
O=C(NCc1cccc(C(F)(F)F)c1)c1cn(CCc2c[nH]c3ccccc23)c(=O)s1	35	
N#Cc1cccc(CC2(c3ccccc3)C(=O)Nc3ccc(OC(F)(F)F)cc32)c1 (centres unmarked)	32.1	
Cc1noc(C)c1CC1(c2ccccc2)C(=O)Nc2c(Cl)cccc21 (centres unmarked)	33	
CC1=NOC(Cc2ccccc2)C(=O)N1CC(=O)c1ccccc1F (centres unmarked)	41.6	
CC1(Cc2ccccc2C#N)C(=O)Nc2ccccc21 (centres unmarked)	39.7	

Same assay, conditions: ShaI/KChIP 20 cells, three consecutive days, duplicate plates; read-out: IC50 range

SMILES	IC50 [µM]
NC(N)=NC(=O)c1nc(Cl)c(N)nc1N [Amiloride, 3,5-diamino-6-chloro-N-(diaminomethylene)pyrazine-2-carboxamide, reference compound]	20 to 29

Same assay, conditions: ShaI/KChIP 20 cells, three consecutive days; standard deviation 3 uM; read-out: IC50 mean

SMILES	IC50 [µM]
NC(N)=NC(=O)c1nc(Cl)c(N)nc1N [Amiloride, 3,5-diamino-6-chloro-N-(diaminomethylene)pyrazine-2-carboxamide, reference compound]	24

Same assay, conditions: read-out: inhibition of ShaI/KChIP response, arbitrary cutoff

SMILES	inhibition at 25 µM [%]
O=C(O)c1ccccc1Nc1cccc(C(F)(F)F)c1 [flufenamic acid, reference compound]	≥ 55
NC(N)=NC(=O)c1nc(Cl)c(N)nc1N [Amiloride, 3,5-diamino-6-chloro-N-(diaminomethylene)pyrazine-2-carboxamide, reference compound]	≥ 55

Each molecule was assayed against T2, octopamine receptor (OctR, CG6919 dmOa2) (Drosophila melanogaster, UniProt Q9VCZ3) (assay: OctR clone 55 FLIPR Fluo-4 calcium assay). Conditions: clone 55, same as published cAMP data.
T2 construct: expressed in transfected cells; host or cells: CHO stably expressing G-alpha-16
Type: cell-based
Procedure: FIG. 62. Cells were plated at 10K/well in 384 well plates and allowed to incubate overnight at […]. The cells were assayed 18-24 hours after seeding. Media was removed and cells were dye loaded for 60 minutes with 2 μM Fluo-4. After 1 hour, dye was removed and 20 μl of buffer added to the plate and placed into FLIPR. The 1st addition was antagonist dose response curves and the 2nd addition was agonist dose response curves. Antagonists were challenged with 100 nM Octopamine. In addition, these compounds were tested in the parental cell line CHO-Galpha16.
Cells were plated at 10,000 cells/well in 50 μl into 384-well black TC plates and allowed to incubate overnight at 37° C./5% CO2. The cells were assayed 18-24 hours after seeding. Culture medium was removed by flicking and cells were dye loaded for 60 minutes with 20 μl of 2 μM Fluo-4 in assay buffer plus probenecid at 25° C. After one hour dye was removed by flicking and 20 μL of assay buffer was added, wait 5 min prior to placing into the FLIPR and run using a two-addition protocol. The first addition (20 ul, 2×) was 0.5% DMSO final in assay buffer. The second addition (20 ul, 3×) was either assay buffer or 100 nM octopamine final.

SMILES	rank order of potency (agonists)
Clc1cccc(Cl)c1N=C1NCCN1 [clonidine]	naphazoline>octopamine>amitraz>clonidine>tolazoline
